Experimental data published in ChEMBL document CHEMBL1177794, “Broad spectrum alkynyl inhibitors of T315I Bcr-Abl” (Bioorg Med Chem Lett, 2010).

How the values were obtained:
[1] = system: Tyrosine-protein kinase ABL1 (Homo sapiens), P00519 [Q252H]; experiment: Inhibition of phosphorylated ABL1 Q252H mutant at 10 uM; conditions: values are per cent of control
[2] = system: Tyrosine-protein kinase ABL1 (Homo sapiens), P00519 [Y253F]; experiment: Inhibition of phosphorylated ABL1 Y253F mutant at 10 uM; conditions: values are per cent of control
[3] = biological target: RAC-alpha serine/threonine-protein kinase (Homo sapiens) (UniProt P31749); experiment: Inhibition of AKT1 at 10 uM; conditions: values are per cent of control
[4] = biological target: Tyrosine-protein kinase Blk (Homo sapiens) (UniProt P51451); experiment: Inhibition of BLK at 10 uM; conditions: values are per cent of control
[5] = biological target: Bone morphogenetic protein receptor type-1B (Homo sapiens) (UniProt O00238); experiment: Inhibition of BMPR1B at 10 uM; conditions: values are per cent of control
[6] = biological target: Calcium/calmodulin-dependent protein kinase kinase 2 (Homo sapiens) (UniProt Q96RR4); experiment: Inhibition of CAMKK2 at 10 uM; conditions: values are per cent of control
[7] = biological target: Megakaryocyte-associated tyrosine-protein kinase (Homo sapiens) (UniProt P42679); experiment: Inhibition of CTK at 10 uM; conditions: values are per cent of control
[8] = biological target: Ephrin type-B receptor 1 (Homo sapiens) (UniProt P54762); experiment: Inhibition of EPHB1 at 10 uM; conditions: values are per cent of control
[9] = biological target: Mitogen-activated protein kinase 4 (Homo sapiens) (UniProt P31152); experiment: Inhibition of ERK4 at 10 uM; conditions: values are per cent of control
[10] = system: Receptor-type tyrosine-protein kinase FLT3 (Homo sapiens), P36888 [D835Y]; experiment: Inhibition of FLT3 D835Y mutant at 10 uM; conditions: values are per cent of control
[11] = system: Receptor-type tyrosine-protein kinase FLT3 (Homo sapiens), P36888 [N841I]; experiment: Inhibition of FLT3 N841I mutant at 10 uM; conditions: values are per cent of control
[12] = biological target: Tyrosine-protein kinase FRK (Homo sapiens) (UniProt P42685); experiment: Inhibition of FRK at 10 uM; conditions: values are per cent of control
[13] = biological target: Inhibitor of nuclear factor kappa-B kinase subunit alpha (Homo sapiens) (UniProt O15111); experiment: Inhibition of IKK-alpha at 10 uM; conditions: values are per cent of control
[14] = biological target: Inhibitor of nuclear factor kappa-B kinase subunit beta (Homo sapiens) (UniProt O14920); experiment: Inhibition of IKK-beta at 10 uM; conditions: values are per cent of control
[15] = biological target: Mast/stem cell growth factor receptor Kit (Homo sapiens) (UniProt P10721); experiment: Inhibition of KIT at 10 uM; conditions: values are per cent of control
[16] = system: Mast/stem cell growth factor receptor Kit (Homo sapiens), P10721 [D816V]; experiment: Inhibition of KIT D816V mutant at 10 uM; conditions: values are per cent of control
[17] = biological target: Serine/threonine-protein kinase MAK (Homo sapiens) (UniProt P20794); experiment: Inhibition of MAK at 10 uM; conditions: values are per cent of control
[18] = biological target: MAP kinase-activated protein kinase 2 (Homo sapiens) (UniProt P49137); experiment: Inhibition of MAPKAPK2 at 10 uM; conditions: values are per cent of control
[19] = system: Hepatocyte growth factor receptor (Homo sapiens), P08581 [Y1235D]; experiment: Inhibition of MET Y1235D mutant at 10 uM
[20] = biological target: MAP kinase-interacting serine/threonine-protein kinase 1 (Homo sapiens) (UniProt Q9BUB5); experiment: Inhibition of MKNK1 at 10 uM
[21] = biological target: MAP kinase-interacting serine/threonine-protein kinase 2 (Homo sapiens) (UniProt Q9HBH9); experiment: Inhibition of MKNK2 at 10 uM
[22] = biological target: Serine/threonine-protein kinase 26 (Homo sapiens) (UniProt Q9P289); experiment: Inhibition of MST4 at 10 uM
[23] = biological target: Serine/threonine-protein kinase Nek6 (Homo sapiens) (UniProt Q9HC98); experiment: Inhibition of NEK6 at 10 uM
[24] = biological target: Serine/threonine-protein kinase NIM1 (Homo sapiens) (UniProt Q8IY84); experiment: Inhibition of NIM1 at 10 uM
[25] = biological target: Serine/threonine-protein kinase PAK 1 (Homo sapiens) (UniProt Q13153); experiment: Inhibition of PAK1 at 10 uM
[26] = biological target: Serine/threonine-protein kinase TAO3 (Homo sapiens) (UniProt Q9H2K8); experiment: Inhibition of TAOK3 at 10 uM
[27] = biological target: BDNF/NT-3 growth factors receptor (Homo sapiens) (UniProt Q16620); experiment: Inhibition of TRKB at 10 uM; conditions: values are per cent of control
[28] = biological target: Cyclin-dependent kinase 16 (Homo sapiens) (UniProt Q00536); experiment: Inhibition of PCTK1 at 10 uM; conditions: values are per cent of control
[29] = biological target: Serine/threonine-protein kinase pim-1 (Homo sapiens) (UniProt P11309); experiment: Inhibition of PIM1 at 10 uM
[30] = biological target: Phosphatidylinositol 5-phosphate 4-kinase type-2 gamma (Homo sapiens) (UniProt Q8TBX8); experiment: Inhibition of PIP5K2C at 10 uM
[31] = biological target: Serine/threonine-protein kinase N2 (Homo sapiens) (UniProt Q16513); experiment: Inhibition of PKN2 at 10 uM
[32] = biological target: Serine/threonine-protein kinase PLK3 (Homo sapiens) (UniProt Q9H4B4); experiment: Inhibition of PLK3 at 10 uM
[33] = biological target: Protein kinase C theta type (Homo sapiens) (UniProt Q04759); experiment: Inhibition of PRKCQ at 10 uM
[34] = biological target: Serine/threonine-protein kinase PRP4 homolog (Homo sapiens) (UniProt Q13523); experiment: Inhibition of PRP4 at 10 uM
[35] = biological target: Protein-tyrosine kinase 2-beta (Homo sapiens) (UniProt Q14289); experiment: Inhibition of PYK2 at 10 uM; conditions: values are per cent of control
[36] = biological target: Ribosomal protein S6 kinase alpha-4 (Homo sapiens) (UniProt O75676); experiment: Inhibition of RPS6KA4 C-terminal domain2 at 10 uM
[37] = biological target: Serine/threonine-protein kinase SBK1 (Homo sapiens) (UniProt Q52WX2); experiment: Inhibition of SBK1 at 10 uM
[38] = biological target: Cyclin-dependent kinase 19 (Homo sapiens) (UniProt Q9BWU1); experiment: Inhibition of CDK11 at 10 uM; values are per cent of control
[39] = biological target: Ephrin type-B receptor 2 (Homo sapiens) (UniProt P29323); experiment: Inhibition of EPHB2 at 10 uM; values are per cent of control
[40] = biological target: Cyclin-dependent kinase 11B (Homo sapiens) (UniProt P21127); experiment: Inhibition of CDC2L1 at 10 uM; values are per cent of control
[41] = biological target: Platelet-derived growth factor receptor beta (Homo sapiens) (UniProt P09619); experiment: Inhibition of PDGFRB at 10 uM; values are per cent of control
[42] = biological target: Cyclin-dependent kinase 4/cyclin D1 (Homo sapiens) (UniProt P11802+P24385); experiment: Inhibition of CDK4/cyclin D1 at 10 uM; values are per cent of control
[43] = system: Proto-oncogene tyrosine-protein kinase receptor Ret (Homo sapiens), P07949 [V804M]; experiment: Inhibition of RET V804M mutant at 10 uM; values are per cent of control
Proto-oncogene tyrosine-protein kinase receptor Ret (Homo sapiens), P07949 [V804M], sequence (P07949 whole entry V804M): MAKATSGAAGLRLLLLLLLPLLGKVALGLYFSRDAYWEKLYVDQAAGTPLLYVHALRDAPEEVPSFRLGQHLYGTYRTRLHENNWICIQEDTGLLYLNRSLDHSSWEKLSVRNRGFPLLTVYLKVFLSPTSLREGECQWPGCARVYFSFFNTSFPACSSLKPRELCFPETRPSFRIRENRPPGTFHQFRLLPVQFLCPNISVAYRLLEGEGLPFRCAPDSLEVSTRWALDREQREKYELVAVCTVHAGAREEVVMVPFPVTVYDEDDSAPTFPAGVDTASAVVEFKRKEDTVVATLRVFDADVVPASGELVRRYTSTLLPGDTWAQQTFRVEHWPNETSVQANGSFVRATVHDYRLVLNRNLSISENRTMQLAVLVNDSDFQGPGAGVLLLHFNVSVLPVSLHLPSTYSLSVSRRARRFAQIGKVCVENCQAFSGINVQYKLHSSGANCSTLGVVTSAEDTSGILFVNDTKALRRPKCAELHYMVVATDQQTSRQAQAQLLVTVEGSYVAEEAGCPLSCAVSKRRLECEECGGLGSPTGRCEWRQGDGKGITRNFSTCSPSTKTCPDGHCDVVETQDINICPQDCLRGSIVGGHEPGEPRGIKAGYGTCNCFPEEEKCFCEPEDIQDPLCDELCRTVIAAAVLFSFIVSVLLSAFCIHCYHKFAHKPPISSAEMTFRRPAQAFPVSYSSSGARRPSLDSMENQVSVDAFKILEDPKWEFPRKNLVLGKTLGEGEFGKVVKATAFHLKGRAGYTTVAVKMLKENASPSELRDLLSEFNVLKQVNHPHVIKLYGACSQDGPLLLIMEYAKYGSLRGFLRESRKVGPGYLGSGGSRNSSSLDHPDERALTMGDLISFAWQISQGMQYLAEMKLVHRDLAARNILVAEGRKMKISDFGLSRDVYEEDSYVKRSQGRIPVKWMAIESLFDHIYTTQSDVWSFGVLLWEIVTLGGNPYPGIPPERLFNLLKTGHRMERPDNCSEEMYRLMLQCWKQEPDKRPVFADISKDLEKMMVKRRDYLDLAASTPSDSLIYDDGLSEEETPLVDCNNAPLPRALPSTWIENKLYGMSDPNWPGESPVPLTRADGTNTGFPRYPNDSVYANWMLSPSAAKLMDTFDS

MAP kinase-activated protein kinase 2 (Homo sapiens), sequence (P49137 whole entry, looked up): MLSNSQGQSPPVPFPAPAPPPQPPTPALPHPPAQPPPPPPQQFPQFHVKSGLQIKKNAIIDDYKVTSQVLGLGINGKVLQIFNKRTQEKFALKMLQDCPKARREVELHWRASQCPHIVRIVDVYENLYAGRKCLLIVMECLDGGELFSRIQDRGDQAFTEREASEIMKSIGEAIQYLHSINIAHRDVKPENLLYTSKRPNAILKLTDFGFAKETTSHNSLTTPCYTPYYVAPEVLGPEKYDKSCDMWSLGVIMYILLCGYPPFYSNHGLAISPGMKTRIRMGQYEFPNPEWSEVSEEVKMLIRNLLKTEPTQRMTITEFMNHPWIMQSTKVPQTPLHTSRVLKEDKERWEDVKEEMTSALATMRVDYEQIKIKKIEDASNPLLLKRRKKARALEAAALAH
Serine/threonine-protein kinase N2 (Homo sapiens), sequence (Q16513 whole entry, looked up): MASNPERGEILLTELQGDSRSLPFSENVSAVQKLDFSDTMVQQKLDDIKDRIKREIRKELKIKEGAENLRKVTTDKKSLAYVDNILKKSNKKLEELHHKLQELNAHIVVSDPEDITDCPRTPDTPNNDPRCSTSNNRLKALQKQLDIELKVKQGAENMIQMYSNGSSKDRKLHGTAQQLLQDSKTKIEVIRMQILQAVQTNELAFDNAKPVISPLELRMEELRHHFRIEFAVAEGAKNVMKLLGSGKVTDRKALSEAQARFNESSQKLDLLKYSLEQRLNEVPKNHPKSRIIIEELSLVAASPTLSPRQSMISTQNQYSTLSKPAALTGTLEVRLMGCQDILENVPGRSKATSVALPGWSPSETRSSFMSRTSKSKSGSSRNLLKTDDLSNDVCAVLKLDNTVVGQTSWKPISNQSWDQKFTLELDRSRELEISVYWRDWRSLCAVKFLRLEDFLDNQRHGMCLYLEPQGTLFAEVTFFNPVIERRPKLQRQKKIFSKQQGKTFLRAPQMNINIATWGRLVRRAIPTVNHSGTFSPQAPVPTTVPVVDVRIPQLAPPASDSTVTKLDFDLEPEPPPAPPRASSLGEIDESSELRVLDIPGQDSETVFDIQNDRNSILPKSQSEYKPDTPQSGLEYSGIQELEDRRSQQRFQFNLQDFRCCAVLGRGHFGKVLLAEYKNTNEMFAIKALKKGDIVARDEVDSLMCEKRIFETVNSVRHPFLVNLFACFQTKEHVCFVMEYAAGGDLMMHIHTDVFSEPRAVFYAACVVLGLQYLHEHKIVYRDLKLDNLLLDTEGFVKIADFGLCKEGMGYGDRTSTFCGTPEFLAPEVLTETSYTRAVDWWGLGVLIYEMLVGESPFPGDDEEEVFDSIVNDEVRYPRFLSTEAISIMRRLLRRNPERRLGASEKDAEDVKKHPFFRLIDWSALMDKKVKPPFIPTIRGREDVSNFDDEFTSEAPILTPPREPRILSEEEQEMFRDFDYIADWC
MAP kinase-interacting serine/threonine-protein kinase 2 (Homo sapiens), sequence (Q9HBH9 whole entry, looked up): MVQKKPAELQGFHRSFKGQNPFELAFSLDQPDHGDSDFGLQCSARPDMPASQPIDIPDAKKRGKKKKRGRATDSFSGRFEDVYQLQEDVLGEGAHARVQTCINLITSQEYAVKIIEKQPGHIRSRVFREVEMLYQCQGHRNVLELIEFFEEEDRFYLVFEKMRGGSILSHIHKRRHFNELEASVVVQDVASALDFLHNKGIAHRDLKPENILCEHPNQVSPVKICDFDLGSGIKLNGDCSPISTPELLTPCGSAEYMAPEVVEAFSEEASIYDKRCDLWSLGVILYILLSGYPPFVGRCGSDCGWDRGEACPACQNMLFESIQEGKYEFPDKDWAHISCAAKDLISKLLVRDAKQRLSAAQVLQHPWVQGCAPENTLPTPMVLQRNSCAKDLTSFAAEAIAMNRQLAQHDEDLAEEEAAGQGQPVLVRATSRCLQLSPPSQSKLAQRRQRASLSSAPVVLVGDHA
Cyclin-dependent kinase 16 (Homo sapiens), sequence (Q00536 whole entry): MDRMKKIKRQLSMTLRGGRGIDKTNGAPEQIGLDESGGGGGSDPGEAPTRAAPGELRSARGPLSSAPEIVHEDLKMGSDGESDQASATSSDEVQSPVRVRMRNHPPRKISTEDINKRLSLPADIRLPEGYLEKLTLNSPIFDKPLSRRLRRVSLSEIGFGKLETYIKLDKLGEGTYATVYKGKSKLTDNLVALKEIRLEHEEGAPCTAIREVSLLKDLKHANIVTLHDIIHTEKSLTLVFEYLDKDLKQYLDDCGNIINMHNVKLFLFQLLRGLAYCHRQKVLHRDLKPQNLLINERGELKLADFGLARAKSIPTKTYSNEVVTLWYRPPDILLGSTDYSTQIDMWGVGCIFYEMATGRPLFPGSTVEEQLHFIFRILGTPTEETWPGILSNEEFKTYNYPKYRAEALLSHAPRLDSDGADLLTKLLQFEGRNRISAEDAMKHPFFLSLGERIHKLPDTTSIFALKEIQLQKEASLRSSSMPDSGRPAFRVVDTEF
Serine/threonine-protein kinase pim-1 (Homo sapiens), sequence (P11309 whole entry, looked up): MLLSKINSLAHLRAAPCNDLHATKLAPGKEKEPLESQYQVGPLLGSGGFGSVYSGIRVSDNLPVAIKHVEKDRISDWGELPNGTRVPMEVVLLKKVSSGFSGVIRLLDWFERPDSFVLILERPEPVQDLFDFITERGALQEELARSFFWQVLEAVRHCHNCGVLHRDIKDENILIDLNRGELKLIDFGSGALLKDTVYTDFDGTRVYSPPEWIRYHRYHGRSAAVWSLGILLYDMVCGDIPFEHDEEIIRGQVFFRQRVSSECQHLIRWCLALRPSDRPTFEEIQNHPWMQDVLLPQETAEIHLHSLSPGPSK
BDNF/NT-3 growth factors receptor (Homo sapiens), sequence (Q16620 32-822 limits assumed): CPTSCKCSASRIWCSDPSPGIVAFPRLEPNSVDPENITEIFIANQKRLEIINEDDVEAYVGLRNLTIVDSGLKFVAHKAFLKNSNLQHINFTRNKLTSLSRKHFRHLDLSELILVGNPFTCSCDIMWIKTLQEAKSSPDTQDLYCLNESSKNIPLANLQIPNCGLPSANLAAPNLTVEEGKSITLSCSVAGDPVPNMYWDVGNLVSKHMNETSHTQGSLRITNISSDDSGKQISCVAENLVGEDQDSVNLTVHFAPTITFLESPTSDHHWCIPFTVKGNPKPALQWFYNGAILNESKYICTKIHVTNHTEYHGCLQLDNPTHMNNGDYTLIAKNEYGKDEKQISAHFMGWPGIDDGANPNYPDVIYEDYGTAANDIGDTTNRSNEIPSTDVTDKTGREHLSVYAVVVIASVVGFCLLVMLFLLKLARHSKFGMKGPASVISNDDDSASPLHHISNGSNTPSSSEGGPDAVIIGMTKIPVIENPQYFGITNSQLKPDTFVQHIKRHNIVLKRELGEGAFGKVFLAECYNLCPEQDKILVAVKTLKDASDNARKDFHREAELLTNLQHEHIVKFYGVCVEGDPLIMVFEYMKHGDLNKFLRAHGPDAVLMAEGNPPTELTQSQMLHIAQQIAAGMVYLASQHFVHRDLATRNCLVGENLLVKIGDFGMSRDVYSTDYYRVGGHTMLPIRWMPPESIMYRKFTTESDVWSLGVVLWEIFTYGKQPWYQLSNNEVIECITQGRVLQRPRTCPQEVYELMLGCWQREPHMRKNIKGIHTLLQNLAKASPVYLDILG
Serine/threonine-protein kinase SBK1 (Homo sapiens), sequence (Q52WX2 whole entry): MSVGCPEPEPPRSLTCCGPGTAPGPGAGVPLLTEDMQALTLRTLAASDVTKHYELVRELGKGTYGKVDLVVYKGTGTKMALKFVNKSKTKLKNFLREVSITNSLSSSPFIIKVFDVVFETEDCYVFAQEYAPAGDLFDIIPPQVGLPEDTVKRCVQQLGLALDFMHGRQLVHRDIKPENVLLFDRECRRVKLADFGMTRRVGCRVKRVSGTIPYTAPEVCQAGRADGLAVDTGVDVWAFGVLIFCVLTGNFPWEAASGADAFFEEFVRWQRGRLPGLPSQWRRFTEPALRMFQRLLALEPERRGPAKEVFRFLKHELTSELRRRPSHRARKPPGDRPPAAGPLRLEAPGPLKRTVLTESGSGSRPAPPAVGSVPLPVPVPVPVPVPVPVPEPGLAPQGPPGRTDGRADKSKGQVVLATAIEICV

Work on `CCN1CCN(Cc2ccc(NC(=O)c3ccc(C)c(C#Cc4cnc5[nH]ccc5c4)c3)cc2C(F)(F)F)CC1` yielded a residual binding, % of control [1] of 0.2%, a residual binding, % of control [2] of 0.2% and a residual binding, % of control [3] of 41%. It also gave a residual binding, % of control [4] of 0%, a residual binding, % of control [5] of 72% and a residual binding, % of control [6] of 27%. It also gave a residual binding, % of control [7] of 45%, a residual binding, % of control [8] of 0.35% and a residual binding, % of control [9] of 26%. For the same molecule, the residual binding, % of control [10] was 0.85%, the residual binding, % of control [11] was 0% and the residual binding, % of control [12] was 0.15%. The residual binding, % of control [13] was 0.45%, the residual binding, % of control [14] was 0.1% and the residual binding, % of control [15] was 0%. It also gave a residual binding, % of control [16] of 0.65%, a residual binding, % of control [17] of 61% and a residual binding, % of control [18] of 100%. The inhibition [19] was 4.9%, the inhibition [20] was 1.2% and the inhibition [21] was 0.6%. The inhibition [22] was 11%, the inhibition [23] was 73% and the inhibition [24] was 98%. It also gave an inhibition [25] of 62%, an inhibition [26] of 0% and a residual binding, % of control [27] of 2%. It also gave a residual binding, % of control [28] of 46%, an inhibition [29] of 100% and an inhibition [30] of 100%. For the same molecule, the inhibition [31] was 2.2%, the inhibition [32] was 92% and the inhibition [33] was 36%. It also gave an inhibition [34] of 84%, a residual binding, % of control [35] of 0.15% and an inhibition [36] of 87%. It also gave an inhibition [37] of 87%, a level, % of control [38] of 4.2% and a level, % of control [39] of 0.6%. It also gave a level, % of control [40] of 0%, a level, % of control [41] of 0% and a level, % of control [42] of 29%. It also gave a level, % of control [43] of 0%.

For `CCN1CCN(Cc2ccc(NC(=O)c3ccc(C)c(C#Cc4cccnc4)c3)cc2C(F)(F)F)CC1`, the residual binding, % of control [1] was 0.7%, the residual binding, % of control [2] was 0.15% and the residual binding, % of control [3] was 81%. For the same molecule, the residual binding, % of control [4] was 0%, the residual binding, % of control [5] was 78% and the residual binding, % of control [6] was 7.8%. The residual binding, % of control [7] was 35%, the residual binding, % of control [8] was 0.5% and the residual binding, % of control [9] was 100%. For the same molecule, the residual binding, % of control [10] was 0.5%, the residual binding, % of control [11] was 0% and the residual binding, % of control [12] was 0.15%. It also gave a residual binding, % of control [13] of 0%, a residual binding, % of control [14] of 0% and a residual binding, % of control [15] of 0%. The residual binding, % of control [16] was 2%, the residual binding, % of control [17] was 9% and the residual binding, % of control [18] was 85%. It also gave an inhibition [19] of 61%, an inhibition [20] of 0.25% and an inhibition [21] of 0%. It also gave an inhibition [22] of 21%, an inhibition [23] of 90% and an inhibition [24] of 97%. For the same molecule, the inhibition [25] was 81%, the inhibition [26] was 0% and the residual binding, % of control [27] was 1.6%. For the same molecule, the residual binding, % of control [28] was 8.4%, the inhibition [29] was 84% and the inhibition [30] was 100%. The inhibition [31] was 36%, the inhibition [32] was 90% and the inhibition [33] was 55%. For the same molecule, the inhibition [34] was 54%, the residual binding, % of control [35] was 0.4% and the inhibition [36] was 99%. It also gave an inhibition [37] of 88%, a level, % of control [38] of 5% and a level, % of control [39] of 0.1%. It also gave a level, % of control [40] of 2.5%, a level, % of control [41] of 0% and a level, % of control [42] of 21%. For the same molecule, the level, % of control [43] was 0%.
